Results as given in patent publication US5214034A, “Catechol derivatives, and preventive and remedial preparations for regressive disorders in the central nervous system containing the same” (priority 1986, dated 1993).
Where two headings read alike, the source gives them in different places.

Legend:
[1] = tested on: production and secretion of NGF on L-M cells; assay: Promoting action for the production and secretion of NGF on L-M cells of mouse (ELISA); assay type: cell-based; settings: for fold induction at 30 µM / fold induction at 150 µM / fold induction at 100 µM: Mus musculus; for Ratio of NGF increase: 1440 min
Source text: Catecholamines have also been found in a relatively high concentration to accelerate these functions without being mediated by adrenergic receptors [Y. Furukawa et al., J. Biol. Chem., 261, 6039-6047 (1986)].
The compound having a high activity in Table 1, that is, the catechol derivative having a n-alkyl group in the 3 or 4 position on the ring has been observed an acute cell toxicity in higher concentrations. The toxicity was considered the result of two hydroxyl groups in the catechol structure. Then the hydroxyl groups were esterified or etherified and the resulting derivative was examined the effect on the activity for the production and secretion of NGF.
The experiment was performed according to the procedures of Y. Furukawa et al. which is described in J. Bis Chem., 261, 6039-6047 (1986).
The medium was cultured for 3 days at a temperature of 37° C. After completing the confluency (about 10^6 cells/well), the medium was changed to Medium 199 (0.5 ml/well) containing 0.5% bovine serum albumin (Fraction V, a product of Armour Co.). The sample of the derivative is contained in the medium at a prescribed concentration as illustrated in the Tables.

[2] = tested on: production and secretion of NGF in brain astroglial cells; assay: Promoting activity for the production and secretion of NGF in brain astroglial cells of mouse (ELISA)
Experimental: The experiment was performed by inducing the astroglial cells from mouse forebrain to culture system according to the procedures of S. Furukawa et al. which is described in Biochem. Biophys. Res. Commun., 136, 57-63 (1986).
That is, forebrains of 8-day old mice were dissected out and cut into small pieces. […] Cells and cell clamps were recovered by centrifugation at 200 xg for 5 minutes. They were cultured in Dulbecco modified Eagle's medium (a product of Gibco Co. hereinafter abbreviated as DMEM) containing 10% of fetal calf serum, […] of penicillin, and 50 μg/ml of streptomycin, for 10 to 14 days with medium changes every 3 days. After completing confluency, the cells were dissociated by trypsin treatment and recultured in new culture flasks. This procedure was repeated further twice and more. […] The cells will hereinafter be referred to as astroglial cells.
Astroglial cells were innoculated in 24-well plates having a well surface area of 2.1 cm^2 (a product of Falcon Co.) at a cell density of about 3×10^4 cells/well and cultured for 3 days in DMEM . medium supplemented with 10% of fetal calf serum. After completing confluency about 10^7 cells/well), the medium was changed to DMEM medium (0.5 ml/well) supplemented with 0.5% of bovine serum albumin ((fraction V) and cultured for 3 days. The culture was further continued with medium changes every 3 days. After cells were practically synchronized in the quiscent stage, the medium was changed to 0.5 ml of the medium supplemented with 0.5% of bovine serum albumin and containing a prescribed concentration of test sample as illustrated in Tables. […] Data are expressed as fold increase in NGF content over that in the absence of the test sample. […] Data are presented as means ±SE of four determinations.

[3] = 24 h, Table 2, 0.03 mM, 24-hr culture, read-out: Ratio of NGF increase, 24-hr culture
[4] = 24 h, Table 2, 0.15 mM, 24-hr culture, read-out: Ratio of NGF increase, 24-hr culture
[5] = 48 h, Table 2, 0.03 mM, 48-hr culture, read-out: Ratio of NGF increase, 48-hr culture
[6] = 48 h, Table 2, 0.15 mM, 48-hr culture, read-out: Ratio of NGF increase, 48-hr culture
[7] = 24 h, read-out: Ratio of NGF increase, 24-hr culture, Table 4, 0.10 mM, 24-hr culture
[8] = 24 h, read-out: Ratio of NGF increase, 24-hr culture, Table 4, 0.25 mM, 24-hr culture
[9] = 48 h, read-out: Ratio of NGF increase, 48-hr culture, Table 4, 0.10 mM, 48-hr culture
[10] = 48 h, read-out: Ratio of NGF increase, 48-hr culture, Table 4, 0.25 mM, 48-hr culture
[11] = 24 h, read-out: Ratio of NGF increase, Table 3, 0.10 mM, 24 hours, mean ± SE of four determinations
[12] = 24 h, read-out: Ratio of NGF increase, Table 3, 0.25 mM, 24 hours, mean ± SE of four determinations
[13] = 24 h, Table 1, 0.03 mM, 24 hours, mean ± SE of four determinations, read-out: Ratio of NGF increase
[14] = 24 h, Table 1, 0.10 mM, 24 hours, mean ± SE of four determinations, read-out: Ratio of NGF increase
[15] = 24 h, read-out: Ratio of NGF increase
[16] = 24 h, read-out: Ratio of NGF increase, 24-hr culture
[17] = 48 h, read-out: Ratio of NGF increase, 48-hr culture

SMILES | fold induction at 30 µM [1, 3] | fold induction at 150 µM [1, 4] | fold induction at 30 µM [1, 5] | fold induction at 150 µM [1, 6] | fold induction at 100 µM [2, 11] | fold induction at 250 µM [2, 12] | fold induction at 30 µM [1, 13] | fold induction at 100 µM [1, 14] | further results
COc1ccc(C)cc1O [4-Methylguaiacol, reference compound] | 1.09 ± 0.06 | 1.03 ± 0.05 | 1.1 ± 0.07 | 1 ± 0.09 |  |  |  |  | 
Cc1ccc2c(c1)OC(C)(C)O2 [C(CH3)2 -, R1 = H, R2 = Methyl, 5,2,2-trimethyl-1,3-benzodioxol] | 1.35 ± 0.12 | 1.22 ± 0.08 | 4.33 ± 1.05 | 3.86 ± 0.84 |  |  |  |  | fold induction at 100 µM [2, 7]: 28.6 ± 2.23; fold induction at 250 µM [2, 8]: 33.7 ± 2.09; fold induction at 100 µM [2, 9]: 41.6 ± 2.21; fold induction at 250 µM [2, 10]: 55.2 ± 4.42
Cc1ccc2oc(=O)oc2c1 [CO-, R1 = H, R2 = Methyl, 4-methyl-o-phenylenecarbonate] | 4.39 ± 0.62 | 4.82 ± 0.55 | 7.54 ± 0.72 | 6.99 ± 0.52 |  |  |  |  | fold induction at 100 µM [2, 7]: 52.4 ± 5.29; fold induction at 250 µM [2, 8]: 44.9 ± 4.25; fold induction at 100 µM [2, 9]: 73.4 ± 4.25; fold induction at 250 µM [2, 10]: 78.3 ± 6.5
Cc1ccc2oc(=O)c(=O)oc2c1 [CO.CO-, R1 = H, R2 = Methyl, 6-methyl-1,4-benzodioxine-2,3-dione] | 4.24 ± 0.58 | 4.62 ± 0.61 | 7.6 ± 0.43 | 7.03 ± 0.69 |  |  |  |  | fold induction at 100 µM [2, 7]: 47.2 ± 3.98; fold induction at 250 µM [2, 8]: 50.6 ± 4.74; fold induction at 100 µM [2, 9]: 69.6 ± 3.25; fold induction at 250 µM [2, 10]: 70.2 ± 5.37
CCc1ccc(O)c(O)c1CC [R = Two H, R1 = Ethyl, R2 = Ethyl] |  |  |  |  | 16.7 ± 1.84 | 23.6 ± 1.9 | 3.01 ± 0.2 | 3.24 ± 0.19 | 
CCc1cccc(O)c1O [R = Two H, R1 = Ethyl, R2 = H] |  |  |  |  |  |  |  |  | fold induction at 100 µM [2, 15]: 46.2 ± 3.97; fold induction at 250 µM [2, 15]: 62.8 ± 4.42; fold induction at 30 µM [1, 15]: 9.76 ± 1.4; fold induction at 100 µM [1, 15]: 11.7 ± 2.13
Oc1ccccc1O [R = Two H, R1 = H, R2 = H, Catechol] |  |  |  |  |  |  |  |  | fold induction at 100 µM [2, 15]: 2.51 ± 0.07; fold induction at 250 µM [2, 15]: 1.92 ± 0.09; fold induction at 30 µM [1, 15]: 1.03 ± 0.04; fold induction at 100 µM [1, 15]: 1.81 ± 0.09; fold induction at 30 µM [1, 16]: 1.15 ± 0.04; fold induction at 150 µM [1, 16]: 1.93 ± 0.12; fold induction at 30 µM [1, 17]: 1.31 ± 0.09; fold induction at 150 µM [1, 17]: 1.79 ± 0.2
CC(C)c1ccc(O)c(O)c1 [R = Two H, R1 = H, R2 = Isopropyl] |  |  |  |  | 34.6 ± 1.62 | 42.9 ± 2.93 | 6.17 ± 0.44 | 5.9 ± 0.41 | 
CCCCCc1ccc(O)c(O)c1 [R = Two H, R1 = H, R2 = n-Pentyl] |  |  |  |  | 43.8 ± 4.71 | 61 ± 5.82 | 6.37 ± 0.25 | 10.2 ± 0.71 | 
CCC(C)c1ccc(O)c(O)c1 (centres unmarked) [R = Two H, R1 = H, R2 = sec-Butyl] |  |  |  |  | 36.3 ± 3.49 | 70.1 ± 5.75 | 9.23 ± 1.41 | 14.7 ± 1.87 | 
CC(C)(C)c1ccc(O)c(O)c1 [R = Two H, R1 = H, R2 = tert-Butyl] |  |  |  |  | 18.5 ± 1.5 | 18.8 ± 2.92 | 3.45 ± 0.35 |  | 
CCc1ccc(O)c(O)c1C [R = Two H, R1 = Methyl, R2 = Ethyl] |  |  |  |  | 50.3 ± 6.27 | 26.2 ± 2.6 | 6.31 ± 0.39 | 3.19 ± 0.73 | Ratio of NGF increase ([1]; Table 1, 0.03 mM, 24 hours, mean ± SE of four determinations, 30 µM): 5.39 ± 0.31 fold; Ratio of NGF increase ([1]; Table 1, 0.10 mM, 24 hours, mean ± SE of four determinations, 100 µM): 5.22 ± 0.27 fold
